Each structure is given as a SMILES string.

Data on eleven compounds can be found in ChEMBL document CHEMBL3397012, “Synthesis and biological evaluation of 4-nitroindole derivatives as 5-HT2A receptor antagonists” (Bioorg Med Chem, 2015).

In assay [1] the target is T1, 5-hydroxytryptamine receptor 6 (Homo sapiens, UniProt P50406). As to the kind of experiment: Inhibition of human recombinant 5-HT6 receptor expressed in HEK293 cells assessed as inhibition of 5-HT-induced increase in […] pretreated for 10 mins by cAMP accumulation assay. Type of assay: functional, cell-based.
T1 sequence (P50406 whole entry): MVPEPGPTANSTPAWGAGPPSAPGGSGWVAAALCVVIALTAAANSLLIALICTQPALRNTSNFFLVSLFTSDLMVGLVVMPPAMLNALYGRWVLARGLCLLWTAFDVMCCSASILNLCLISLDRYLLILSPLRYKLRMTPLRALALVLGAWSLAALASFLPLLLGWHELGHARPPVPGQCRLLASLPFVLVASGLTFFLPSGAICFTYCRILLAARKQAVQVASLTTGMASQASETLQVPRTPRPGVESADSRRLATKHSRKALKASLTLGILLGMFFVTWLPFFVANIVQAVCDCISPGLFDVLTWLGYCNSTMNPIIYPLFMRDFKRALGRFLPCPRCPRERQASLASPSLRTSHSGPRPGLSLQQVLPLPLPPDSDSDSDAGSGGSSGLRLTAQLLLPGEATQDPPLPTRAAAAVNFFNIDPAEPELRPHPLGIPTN
The target of assay [2] is T2, 5-hydroxytryptamine receptor 2A (Homo sapiens, UniProt P28223). As to the kind of experiment: Displacement of [3H]Ketanserin from human recombinant 5-HT2A receptor expressed in CHO-K1 cells at 10 uM after 15 mins. The format is cell-based. On the technique in general: In a radioligand displacement assay an active substance lowers the binding of a labelled ligand.
T2 sequence (P28223 whole entry): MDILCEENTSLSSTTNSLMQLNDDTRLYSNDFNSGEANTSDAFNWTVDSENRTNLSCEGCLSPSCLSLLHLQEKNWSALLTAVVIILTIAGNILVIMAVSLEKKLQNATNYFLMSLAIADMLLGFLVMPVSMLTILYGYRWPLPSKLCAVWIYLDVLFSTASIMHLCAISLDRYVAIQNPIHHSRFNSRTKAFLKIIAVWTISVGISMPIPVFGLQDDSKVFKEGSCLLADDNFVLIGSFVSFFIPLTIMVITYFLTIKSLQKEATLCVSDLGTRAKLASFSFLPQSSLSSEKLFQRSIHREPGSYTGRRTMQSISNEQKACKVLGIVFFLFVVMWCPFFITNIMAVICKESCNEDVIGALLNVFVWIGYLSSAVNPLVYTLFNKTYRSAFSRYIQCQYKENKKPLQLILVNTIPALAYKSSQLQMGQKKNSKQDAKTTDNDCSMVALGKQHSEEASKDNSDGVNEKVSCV
Assay [3] deals with T1, 5-hydroxytryptamine receptor 6. Briefly: Inhibition of human recombinant 5-HT6 receptor expressed in HEK293 cells assessed as inhibition of 5-HT-induced increase in […] pretreated at 10 uM for 10 mins by cAMP accumulation assay. Type of assay: functional, cell-based.
In assay [4] the target is T2, 5-hydroxytryptamine receptor 2A. As to the kind of experiment: Displacement of [3H]Ketanserin from human recombinant 5-HT2A receptor expressed in CHO-K1 cells after 15 mins. Type of assay: cell-based.
Assay [5] deals with T3, 5-hydroxytryptamine receptor 2C (Homo sapiens) (UniProt P28335).
T3 sequence (whole entry): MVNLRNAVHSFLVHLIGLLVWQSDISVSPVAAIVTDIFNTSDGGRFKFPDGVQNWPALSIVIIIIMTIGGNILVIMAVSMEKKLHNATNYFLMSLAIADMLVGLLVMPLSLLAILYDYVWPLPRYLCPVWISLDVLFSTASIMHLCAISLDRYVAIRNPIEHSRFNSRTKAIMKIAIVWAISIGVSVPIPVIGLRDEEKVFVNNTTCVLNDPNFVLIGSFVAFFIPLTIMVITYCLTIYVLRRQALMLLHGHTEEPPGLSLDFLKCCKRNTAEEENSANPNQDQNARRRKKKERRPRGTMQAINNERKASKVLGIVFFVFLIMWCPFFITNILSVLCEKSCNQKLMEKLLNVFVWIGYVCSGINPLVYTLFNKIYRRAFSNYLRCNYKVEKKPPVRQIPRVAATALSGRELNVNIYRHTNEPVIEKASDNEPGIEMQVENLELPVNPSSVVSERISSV
Briefly: Displacement of [3H]Mesulergine from human recombinant 5-HT2C receptor expressed in CHO-K1 cells at 10 uM after 15 mins. Type of assay: cell-based.

For assay [6], the target named is T4, 5-hydroxytryptamine receptor 2C (Homo sapiens, UniProt P28335).
T4 sequence (P28335 whole entry): T3 sequence (whole entry)
Briefly: Displacement of [3H]Mesulergine from human recombinant 5-HT2C receptor expressed in CHO-K1 cells after 15 mins. Type of assay: cell-based.

As to `CN1CCN(c2nc3ccc(NS(=O)(=O)c4cccc5ccccc45)cc3s2)CC1`, the IC50 (commonly the concentration needed to halve the response being measured) in assay [1] was 3900 nM.

Take `CN(C)/C=N/N=C/c1cn(S(=O)(=O)c2ccc3ccccc3c2)c2cccc([N+](=O)[O-])c12`: the inhibition (usually the percentage by which the read-out fell short of the control) amounted to 88% in assay [2], 68% in assay [3] and 80.1% in assay [5]. Moreover, the IC50 in assay [4] worked out at 433 nM; in assay [6], 463 nM; in assay [1], 2530 nM.

Consider `CN(C)/C=N/N=C/c1cn(S(=O)(=O)c2cccc3ccccc23)c2cccc([N+](=O)[O-])c12`, for which the inhibition in assay [2] stood at 94.6%; in assay [3], 73.9%; in assay [5], 64.2%. Further, the IC50 in assay [4] came to 555 nM; in assay [1] it was 2960 nM.

For the compound `CN(C)/C=N/N=C/c1cn(S(=O)(=O)c2ccc(F)cc2)c2cccc([N+](=O)[O-])c12`, the inhibition in assay [2] stood at 94.2%; in assay [3] it was 63.9%; in assay [5] it was 55.5%. Moreover, the IC50 in assay [4] came to 702 nM; in assay [1], 4970 nM.

`COc1ccc(Cl)cc1S(=O)(=O)n1cc(/C=N/N=C/N(C)C)c2c([N+](=O)[O-])cccc21`: the results for the inhibition in assay [2], in assay [3] and in assay [5] were 75.9%, 87.7% and 44.9%, respectively. Moreover, the IC50 in assay [4] turned out to be 1590 nM; in assay [1], 2440 nM.

For the compound `COc1ccc(S(=O)(=O)n2cc(/C=N/N=C/N(C)C)c3c([N+](=O)[O-])cccc32)cc1`, the values for the inhibition in assay [2], in assay [3] and in assay [5] were 90.7%, 78.6% and 67.8%, respectively. Also, the IC50 was 205 nM in assay [4], 1040 nM in assay [6] and 740 nM in assay [1].

As to `CN(C)/C=N/N=C/c1cn(S(=O)(=O)c2ccc(I)cc2)c2cccc([N+](=O)[O-])c12`, the values for the inhibition in assay [2], in assay [3] and in assay [5] were 85.2%, 62.4% and 66.2%, respectively. Besides, the figures for the IC50 in assay [4] and in assay [1] were 247 nM and 6340 nM, respectively.

Take `COc1ccc(OC)c(S(=O)(=O)n2cc(/C=N/N=C/N(C)C)c3c([N+](=O)[O-])cccc32)c1`: the inhibition in assay [2] is 84.4%; in assay [3] it was 78.2%; in assay [5], 48.1%. The IC50 in assay [4] stood at 479 nM; in assay [1], 1400 nM.

On to `CN(C)/C=N/N=C/c1cn(S(=O)(=O)c2ccccc2)c2cccc([N+](=O)[O-])c12`, for which the inhibition was 83.9% in assay [2], 78.1% in assay [3] and 48.4% in assay [5]. The values for the IC50 in assay [4] and in assay [1] were 329 nM and 1830 nM, respectively.

In the case of `CCCCc1ccc(S(=O)(=O)n2cc(/C=N/N=C/N(C)C)c3c([N+](=O)[O-])cccc32)cc1`, the inhibition in assay [3] was determined as 11.3%.

Take `Cc1ccc(S(=O)(=O)n2cc(/C=N/N=C/N(C)C)c3c([N+](=O)[O-])cccc32)cc1`: the inhibition in assay [2] was 88.3%; in assay [3], 75.2%; in assay [5], 82.3%. For the same compound, the IC50 in assay [4] is 253 nM; in assay [6], 480 nM; in assay [1] it was 2120 nM.
